Source: patent US20120010075A1 (priority 2009, published 2012)
Read-outs that look alike come from different tables or passages of the source.

Tests used:
[1] = system: Leptosphaeria nodorum (LEPTNO); assay: In vitro fungitoxicity of hydrazones with and without copper towards Leptosphaeria nodorum (Example 26); assay type: cell-based; settings: 72 h at 25° C.; for inhibition of growth at 0.05 µg/mL: Parastagonospora nodorum, 72 h, copper-minus medium, read-out: LEPTNO % Inhn. Minus Copper Observed
Phytophthora infestans = assay type: in vivo, Phytophthora infestans on tomato; settings: applied 24 h before inoculation, assessed 7 days after inoculation
[2] = compound 0.05 μg/mL, copper-plus medium (CuCl2.2H2O)
[3] = hydrazone 50 ppm + 50 μM CuCl2.2H2O, tomato
[4] = test compound Concn. 0.05 μg/mL
[5] = copper-plus medium (CuCl2 10 μM), test compound Concn. 0.05 μg/mL
[6] = hydrazone 50 ppm with 50 μM CuCl2.2H2O, tomato late blight

Compound	inhibition of growth at 0.05 µg/mL ([1]; compound 0.05 μg/mL) [%]	LEPTNO % Inhn. Plus Copper Observed [1, 2] [%]	TLB % Control (Phytophthora infestans; [3]) [%]	melting point [°C]	inhibition of growth at 0.05 µg/mL [1, 4] [%]	LEPTNO % Inhn. Plus Copper Observed [1, 5] [%]	TLB % Control (Phytophthora infestans; [6]) [%]
Cc1cc(C)cc(C(=O)N/N=C/c2cc(Br)cc(Br)c2O)c1 [Example 110]	19.9	98.2	76.4	209 to 211			
COc1cc(O)c(/C(C)=N/NC(=O)c2ccccc2O)c(OC)c1 [Example 586]				182 to 199	0	87.3	31.0
C/C(=N\NC(=O)c1ccccc1C)c1cc(C)ccc1O [Example 312]				154 to 156	3.8	97.8	1.4
Cc1ccc(C(=O)N/N=C/c2cc(C(F)(F)F)cc(Cl)c2O)cc1 [Example 322]				269 to 271	20.9	97.9	95.0
O=C(N/N=C/c1cc(Cl)cc(Cl)c1O)c1cc(Cl)ccc1O [Example 475]				287 to 292	33.8	97.1	100.0
O=C(N/N=C/c1cc(Br)cc(F)c1O)c1ccccc1O [Example 409]				297 to 299	7.9	96.3	98.0
CCOc1ccc(C(=O)N/N=C/c2cc(Cl)cc(Cl)c2O)cc1 [Example 97]	18.2	98.3	76.3	279 to 281			
Cc1ccc(C(=O)N/N=C/c2c(Cl)ccc(Cl)c2O)c(O)c1 [Example 374]				248 to 254	11.1	98.2	98.0
O=C(N/N=C/c1ccc(Cl)c(Cl)c1O)c1cccc([N+](=O)[O-])c1 [Example 360]				269 to 271	17.6	96.9	97.0
CNc1ccc(C(=O)N/N=C/c2cc(Cl)cc(Cl)c2O)cc1 [Example 259]	9.9	97.9	32.0	245 to 253			
O=C(N/N=C/c1cc(Br)ccc1O)c1ccc(C(F)(F)F)cc1 [Example 184]	7.1	97.0	70.9	219 to 222			
C/C(=N\NC(=O)c1ccccc1O)c1cc(Cl)cc(Cl)c1O [Example 471]				306 to 308	7.9	97.8	83.0
C/C(=N\NC(=O)c1cccc(C)c1)c1cc(Br)ccc1O [Example 289]	0	97.6	45.0	227 to 233			
C/C(=N\NC(=O)c1ccc(Br)cc1)c1cc(Cl)ccc1O [Example 512]				269 to 271	7.4	97.8	59.0
CC/C(=N\NC(=O)c1cccc(Oc2ccccc2)c1)c1ccccc1O [Example 44]	0.3	93.0	0.7	148 to 163			
O=C(N/N=C/c1c(O)cccc1Cl)c1ccc(F)cc1 [Example 401]				266 to 268	0	94.8	98.0
O=C(N/N=C/c1c(F)ccc(F)c1O)c1ccccc1 [Example 244]	0	96.1	62.7	206 to 207			
COc1ccc(/C(C)=N/NC(=O)c2ccccc2)c(O)c1 [Example 280]	2.2	98.2	88.0	211 to 213			
COc1ccc(C(=O)N/N=C(\C)c2cc(Br)ccc2O)cc1 [Example 516]				202 to 252	0	97.9	59.0
O=C(N/N=C/c1cc(Cl)cc(Br)c1O)c1ccc([N+](=O)[O-])cc1 [Example 417]				237 to 250	10.7	98.2	100.0
C/C(=N\NC(=O)c1ccccc1)c1cc(F)cc(F)c1O [Example 572]				222 to 225	2.5	97.4	94.0

Compound	inhibition of growth at 0.05 µg/mL ([1]; compound 0.05 μg/mL) [%]	LEPTNO % Inhn. Plus Copper Observed [1, 2] [%]	TLB % Control (Phytophthora infestans; [3]) [%]	melting point [°C]	inhibition of growth at 0.05 µg/mL [1, 4] [%]	LEPTNO % Inhn. Plus Copper Observed [1, 5] [%]	TLB % Control (Phytophthora infestans; [6]) [%]
COc1ccc(C(=O)N/N=C(\C)c2ccc(Cl)cc2O)cc1 [Example 459]				262 to 263	7.3	96.9	20.0
O=C(N/N=C/c1cc(C(F)(F)F)cc(C(F)(F)F)c1O)c1ccccc1C(F)(F)F [Example 341]				210 to 214	1.2	88.9	63.0
C/C(=N\NC(=O)c1cccc(C)c1)c1cccc(Cl)c1O [Example 494]				164 to 178	0	97.7	96.0
C/C(=N\NC(=O)c1ccc(Cl)cc1)c1cccc([N+](=O)[O-])c1O [Example 274]	0	96.3	89.0	241 to 251			
O=C(N/N=C/c1cc(Cl)cc(Cl)c1O)c1ccc2ccccc2c1 [Example 92]	1.9	98.2	71.9	215 to 217			
COc1cc(O)c(/C(C)=N/NC(=O)c2ccc(C)cc2)c(OC)c1 [Example 566]				177 to 184	6.8	95.9	70.0
O=C(N/N=C/c1cc(Cl)cc(C(F)(F)F)c1O)c1ccc(F)cc1 [Example 379]				227 to 228	26.7	98.2	100.0
O=C(N/N=C/c1c(C(F)(F)F)ccc(Cl)c1O)c1cccc(F)c1 [Example 449]				227 to 229	7.2	98.5	92.0
Cc1ccc(/C=N/NC(=O)c2ccccc2)c(O)c1 [Example 234]	0	94.3	72.9	179 to 182			
O=C(N/N=C/c1cc(C(F)(F)F)ccc1O)c1cccc([N+](=O)[O-])c1 [Example 441]				218 to 220	0	100.0	96.0
O=C(N/N=C/c1c(Cl)ccc(Cl)c1O)c1ccccc1O [Example 372]				260 to 262	15.1	97.4	98.0
C/C(=N\NC(=O)c1ccccc1Br)c1cc(Cl)ccc1O [Example 514]				222 to 225	0	97.7	75.0
O=C(N/N=C/c1ccc(Cl)cc1O)c1ccc(F)cc1 [Example 390]				226 to 228	4.2	97.5	95.0
C/C(=N\NC(=O)c1ccccc1O)c1ccc(Cl)cc1O [Example 463]				311 to 312	5.1	96.3	61.0
Cc1ccc(C(=O)N/N=C/c2c(Cl)ccc(Cl)c2O)cc1 [Example 366]				267 to 269	14.2	96.6	100.0
C/C(=N\NC(=O)c1ccc(C)cc1)c1cccc([N+](=O)[O-])c1O [Example 271]	6.9	98.9	61.0	242 to 249			
O=C(N/N=C/c1cc(C(F)(F)F)ccc1O)c1ccc([N+](=O)[O-])cc1 [Example 442]				259 to 265	0	100.0	98.0
O=C(N/N=C/c1cc(Cl)cc(Cl)c1O)c1ccc(Cl)cc1O [Example 474]				276 to 279	39.2	97.6	100.0
C/C(=N\NC(=O)c1ccccc1Br)c1cc(F)cc(F)c1O [Example 582]				190 to 195	12.2	97.8	94.0
O=C(N/N=C/c1ccc(Cl)c(Cl)c1O)c1cccc(Cl)c1 [Example 358]				219 to 222	12.7	98.3	100.0
